Results published in the NIST ThermoML archive (doi:10.1021/je100102q).
Numbers after ± are expanded uncertainties.

Conditions: Gas, isochoric method

C=C(F)C(F)(F)F [2,3,3,3-tetrafluoro-1-propene]
Conditions | molar volume [m3/mol]
243.07 K, 98 kPa | 0.01911 ± 0.00016
243.08 K, 84.5 kPa | 0.02278 ± 0.00016
248.02 K, 86.5 kPa | 0.02278 ± 0.00016
249.15 K, 87 kPa | 0.02278 ± 0.00016
253.01 K, 105.1 kPa | 0.01912 ± 0.00016
253.07 K, 88.5 kPa | 0.02278 ± 0.00016
258.03 K, 90.4 kPa | 0.02279 ± 0.00016
262.93 K, 171.7 kPa | 0.01189 ± 0.00016
262.97 K, 109.8 kPa | 0.01913 ± 0.00016
263.08 K, 92.4 kPa | 0.02279 ± 0.00016
267.98 K, 94.2 kPa | 0.0228 ± 0.00016
272.84 K, 179.3 kPa | 0.01189 ± 0.00016
272.92 K, 114.4 kPa | 0.01914 ± 0.00016
273.04 K, 96.2 kPa | 0.0228 ± 0.00016
277.99 K, 98 kPa | 0.02281 ± 0.00016
282.62 K, 118.8 kPa | 0.01914 ± 0.00016
282.68 K, 186.6 kPa | 0.0119 ± 0.00016
282.75 K, 430.2 kPa | 0.004676 ± 0.00016
282.95 K, 99.9 kPa | 0.02281 ± 0.00016
283 K, 394.6 kPa | 0.005292 ± 0.00016
287.79 K, 101.7 kPa | 0.02282 ± 0.00016
287.93 K, 447.1 kPa | 0.004677 ± 0.00016
287.99 K, 403.8 kPa | 0.005293 ± 0.00016
292.58 K, 193.9 kPa | 0.0119 ± 0.00016
292.76 K, 103.6 kPa | 0.02282 ± 0.00016
292.81 K, 457.2 kPa | 0.004678 ± 0.00016
292.95 K, 412.8 kPa | 0.005295 ± 0.00016
292.99 K, 123.5 kPa | 0.01915 ± 0.00016
293.1 K, 508.2 kPa | 0.004171 ± 0.00016
297.8 K, 105.5 kPa | 0.02283 ± 0.00016
297.89 K, 467.6 kPa | 0.00468 ± 0.00016
298.08 K, 422.1 kPa | 0.005296 ± 0.00016
302.7 K, 201.4 kPa | 0.01191 ± 0.00016
302.91 K, 477.9 kPa | 0.004681 ± 0.00016
303.09 K, 431.1 kPa | 0.005297 ± 0.00016
303.11 K, 703.6 kPa | 0.002968 ± 0.00016
303.12 K, 107.4 kPa | 0.02284 ± 0.00016
303.12 K, 128.1 kPa | 0.01916 ± 0.00016
303.12 K, 531.3 kPa | 0.004173 ± 0.00016
308.1 K, 439.9 kPa | 0.005298 ± 0.00016
308.11 K, 109.3 kPa | 0.02284 ± 0.00016
308.11 K, 488.4 kPa | 0.004682 ± 0.00016
313.09 K, 448.7 kPa | 0.005299 ± 0.00016
313.11 K, 111.2 kPa | 0.02285 ± 0.00016
313.11 K, 498.5 kPa | 0.004683 ± 0.00016
313.11 K, 554 kPa | 0.004174 ± 0.00016
313.11 K, 738.1 kPa | 0.002969 ± 0.00016
313.12 K, 132.7 kPa | 0.01917 ± 0.00016
313.12 K, 209 kPa | 0.01192 ± 0.00016
318.09 K, 457.5 kPa | 0.0053 ± 0.00016
318.09 K, 508.5 kPa | 0.004684 ± 0.00016
318.1 K, 113 kPa | 0.02285 ± 0.00016
318.11 K, 861.5 kPa | 0.002534 ± 0.00016
323.07 K, 518.3 kPa | 0.004685 ± 0.00016
323.08 K, 114.9 kPa | 0.02286 ± 0.00016
323.08 K, 466.1 kPa | 0.005302 ± 0.00016
323.09 K, 216.2 kPa | 0.01192 ± 0.00016
323.09 K, 576.5 kPa | 0.004176 ± 0.00016
323.09 K, 771.8 kPa | 0.00297 ± 0.00016
323.1 K, 137.1 kPa | 0.01918 ± 0.00016
328.06 K, 474.7 kPa | 0.005303 ± 0.00016
328.06 K, 528.3 kPa | 0.004686 ± 0.00016
328.06 K, 901.7 kPa | 0.002535 ± 0.00016
328.07 K, 116.8 kPa | 0.02286 ± 0.00016
333.04 K, 118.8 kPa | 0.02286 ± 0.00016
333.04 K, 483.3 kPa | 0.005304 ± 0.00016
333.04 K, 538.1 kPa | 0.004687 ± 0.00016
333.05 K, 537.8 kPa | 0.004687 ± 0.00016
333.05 K, 598.7 kPa | 0.004178 ± 0.00016
333.05 K, 804.7 kPa | 0.002972 ± 0.00016
333.06 K, 141.6 kPa | 0.01919 ± 0.00016
333.06 K, 223.4 kPa | 0.01192 ± 0.00016
338 K, 1538.8 kPa | 0.001325 ± 0.00016
338.01 K, 491.8 kPa | 0.005305 ± 0.00016
338.02 K, 941.5 kPa | 0.002536 ± 0.00016
338.03 K, 120.6 kPa | 0.02287 ± 0.00016
338.03 K, 547.6 kPa | 0.004688 ± 0.00016
342.99 K, 146.1 kPa | 0.0192 ± 0.00016
342.99 K, 500.3 kPa | 0.005306 ± 0.00016
343 K, 122.5 kPa | 0.02287 ± 0.00016
343 K, 230.6 kPa | 0.01193 ± 0.00016
343.01 K, 557.3 kPa | 0.004689 ± 0.00016
343.01 K, 620.6 kPa | 0.00418 ± 0.00016
343.02 K, 837.4 kPa | 0.002973 ± 0.00016
347.94 K, 1624.6 kPa | 0.001325 ± 0.00016
347.94 K, 2217.8 kPa | 0.000789 ± 0.00016
347.96 K, 508.8 kPa | 0.005307 ± 0.00016
347.97 K, 124.3 kPa | 0.02288 ± 0.00016
347.98 K, 980.2 kPa | 0.002537 ± 0.00016
347.98 K, 2157.7 kPa | 0.000833 ± 0.00016
347.99 K, 567 kPa | 0.00469 ± 0.00016
352.91 K, 517.2 kPa | 0.005309 ± 0.00016
352.91 K, 2303.2 kPa | 0.000789 ± 0.00016
352.96 K, 126.1 kPa | 0.02288 ± 0.00016
352.96 K, 576.6 kPa | 0.004691 ± 0.00016
352.96 K, 642.4 kPa | 0.004182 ± 0.00016
352.96 K, 869.4 kPa | 0.002974 ± 0.00016
352.98 K, 150.6 kPa | 0.0192 ± 0.00016
352.98 K, 237.7 kPa | 0.01194 ± 0.00016
352.99 K, 2237.2 kPa | 0.000833 ± 0.00016
357.86 K, 2385.6 kPa | 0.000789 ± 0.00016
357.88 K, 525.6 kPa | 0.00531 ± 0.00016
357.92 K, 128 kPa | 0.02289 ± 0.00016
357.93 K, 586.2 kPa | 0.004692 ± 0.00016
357.93 K, 1018.7 kPa | 0.002538 ± 0.00016
357.95 K, 1709 kPa | 0.001326 ± 0.00016
357.95 K, 2314.1 kPa | 0.000833 ± 0.00016
362.83 K, 2467.7 kPa | 0.000789 ± 0.00016
362.86 K, 534 kPa | 0.005311 ± 0.00016
362.89 K, 129.8 kPa | 0.02289 ± 0.00016
362.89 K, 2389.2 kPa | 0.000833 ± 0.00016
362.92 K, 595.8 kPa | 0.004693 ± 0.00016
362.92 K, 664 kPa | 0.004184 ± 0.00016
362.92 K, 3067.5 kPa | 0.000251
362.93 K, 155 kPa | 0.01921 ± 0.00016
362.93 K, 901.2 kPa | 0.002976 ± 0.00016
362.96 K, 244.9 kPa | 0.01194 ± 0.00016
367.8 K, 2548.9 kPa | 0.000789 ± 0.00016
367.83 K, 542.5 kPa | 0.005312 ± 0.00016
367.87 K, 131.9 kPa | 0.0229 ± 0.00016
367.88 K, 1057 kPa | 0.002539 ± 0.00016
367.88 K, 2463.9 kPa | 0.000834 ± 0.00016
367.89 K, 605.3 kPa | 0.004694 ± 0.00016
367.92 K, 1791.4 kPa | 0.001326 ± 0.00016
367.92 K, 3386.9 kPa | 0.000251
372.8 K, 2629.5 kPa | 0.000789 ± 0.00016
372.81 K, 550.9 kPa | 0.005313 ± 0.00016
372.82 K, 133.8 kPa | 0.0229 ± 0.00016
372.84 K, 932.4 kPa | 0.002977 ± 0.00016
372.85 K, 1075.9 kPa | 0.00254 ± 0.00016
372.85 K, 2537.2 kPa | 0.000834 ± 0.00016
372.87 K, 614.8 kPa | 0.004695 ± 0.00016
372.88 K, 159.4 kPa | 0.01922 ± 0.00016
372.88 K, 252 kPa | 0.01195 ± 0.00016
372.88 K, 685.4 kPa | 0.004185 ± 0.00016
372.88 K, 3715.9 kPa | 0.000251

FCC(F)(F)F [1,1,1,2-tetrafluoroethane]
Conditions | molar volume [m3/mol]
253.09 K, 107.6 kPa | 0.01875 ± 0.00016
272.92 K, 158.9 kPa | 0.01358 ± 0.00016
282.69 K, 329.1 kPa | 0.006516 ± 0.00016
282.8 K, 121.4 kPa | 0.01878 ± 0.00016
292.87 K, 171.9 kPa | 0.0136 ± 0.00016
292.89 K, 126.2 kPa | 0.01878 ± 0.00016
302.58 K, 357.7 kPa | 0.006522 ± 0.00016
313.1 K, 135.4 kPa | 0.0188 ± 0.00016
313.1 K, 184.9 kPa | 0.01361 ± 0.00016
323.07 K, 386.5 kPa | 0.006528 ± 0.00016
333.03 K, 144.3 kPa | 0.01882 ± 0.00016
333.03 K, 1610.8 kPa | 0.001248 ± 0.00016
333.05 K, 197.5 kPa | 0.01362 ± 0.00016
342.96 K, 413.7 kPa | 0.006533 ± 0.00016
343 K, 1706.9 kPa | 0.001248 ± 0.00016
352.93 K, 153.2 kPa | 0.01883 ± 0.00016
352.94 K, 1798.6 kPa | 0.001249 ± 0.00016
353.04 K, 210 kPa | 0.01363 ± 0.00016
362.89 K, 440.7 kPa | 0.006539 ± 0.00016
362.9 K, 1888.6 kPa | 0.001249 ± 0.00016
372.82 K, 454 kPa | 0.006542 ± 0.00016
372.84 K, 162.1 kPa | 0.01885 ± 0.00016
372.87 K, 1976.6 kPa | 0.00125 ± 0.00016
372.99 K, 222.4 kPa | 0.01364 ± 0.00016
